Measured values taken from patent publication US20230322854A1, “HUNTINGTIN-RELATED PEPTIDE AGENTS AND USES THEREOF” (UNIVERSITY OF SOUTHERN CALIFORNIA, priority 2020, published 2023).
Entries after “also recorded” stand apart in the source; their conditions may differ. No end group written: not given here.

Experiments:
Htt-fibrils [1] = assay: EPR of spin-labeled peptide binding to Htt-fibrils; settings: spin-labeled synthetic peptide
Method: FIG. 10 presents graphs showing testing binding of chemically synthesized HD1 or HD8 using Electron Paramagnetic Resonance (EPR). […] Panel B is a graph showing the results of experiments aimed at the determination of the stoichiometry of peptides binding to Httex1 molecules in the fibril, in which a spin-labeled peptide (HD1 or HD8) is added to 15 μM fibrils.
HD1 and HD8 binding was analyzed by electron paramagnetic resonance (EPR). The synthetic peptides were spin labeled using a free Cys at the C-terminus of the peptides. […] The stoichiometry of the complex was also studied using EPR, with varying amounts of peptide added to fibrils (FIG. 10, panel B).

monomeric Huntingtin = assay: Radioactive binding assay, monomeric Huntingtin; settings: radiolabeled peptide
Method: (§1) The binding of the peptide library was determined using a radioactive binding assay. In this assay, peptides were radiolabeled by translating the mRNA coding for these peptides in the presence of ^35S-methionine using rabbit reticulocyte lysate (Jackson, et al. (1983) Methods Enzymol 96: 50-74). These peptides were translated in an mRNA display format and were thus linked to their encoding mRNA, as described above. After purification by dT chromatography, the radiolabeled peptides were incubated with Huntingtin fibrils immobilized on Neutravidin Agarose or Streptavidin Ultralink beads. The beads were then filtered through a Spin X column (Corning) to separate the supernatant and beads, then washed to remove unbound sequences. The supernatant, washes, and beads were all counted in a scintillation counter to determine the counts in each sample. The percent bound was determined by dividing the counts on the beads with the total counts (beads+washes+supernatant).
HD1 through HD4 were also tested for binding to monomeric Huntingtin (FIG. 5).
(§2) HD1 and HD8 were also tested for binding specificity. Radiolabeled HD1 and HD8 were incubated with monomeric Huntingtin, unbundled Htt-fibrils, or α-Synuclein fibrils (α-Synuclein is another protein known to aggregate and form fibrils).

Htt-fibrils [2] = assay: Competition binding of synthetic peptide against radiolabeled peptide on immobilized fibrils; settings: competitor = synthetic peptide in DMSO, 3.2 Fibril; for binding of radiolabeled HD8 to Htt-fibrils on addition of synthetic peptide: not to the same extent as with radiolabeled HD1
Method: Radiolabeled HD1 or HD8 were bound to immobilized fibrils and the appropriate compound was tested in a competition binding assay. From left to right and for each dataset shown on the graph (i.e., “HD1” and “HD8”), the bars represent “No Target+DMSO”, “No Target+HD1”, “No Target+HD8”, “3.2 Fibril+DMSO”, “3.2 Fibril+HD1”, and “3.2 Fibril+HD8”.
HD1 and HD8 were chemically synthesized and purified by reverse-phase HPLC and resuspended in DMSO. In order to verify that these synthetic peptides were functional for binding, we designed a competition experiment. We radiolabeled HD1 and HD8 above then tested to see if synthetic HD1 or HD8 would compete and reduce binding of the radiolabeled peptides. […] Binding to Htt-fibrils (3.2 Fibril+DMSO) was reduced by the addition of synthetic HD1 (3.2 Fibril+HD1) or by addition of synthetic HD8 (3.2 Fibril+HD8).

[3] = tested on: unbundled Huntingtin fibrils (exon 1); assay: Radioactive binding assay, immobilized unbundled Huntingtin fibrils; settings: for binding to Htt-fibrils: radiolabeled mRNA-peptide fusions, fibrils immobilized on beads
Source text: Messenger RNA (mRNA) display (described in (Roberts, et al. (1997) Proc Natl Acad Sci USA 94: 12297-302, Takahashi, et al. (2003) Trends Biochem Sci 28: 159-65); FIG. 2) was used to engineer peptide agents that bind to unbundled fibrils of Huntingtin exon 1. To do this, unbundled Huntingtin fibrils were generated by mixing biotinylated Huntingtin protein (exon 1; FIG. 1) with non-biotinylated exon 1 Huntingtin protein at a ratio of 1:20 (˜5% biotinylated Huntingtin). These fibrils were then immobilized on Neutravidin agarose (Thermo Fisher) or Streptavidin ultralink beads (Thermo Fisher) via the attached biotin. A MX9 (where X is any of the 20 natural amino acids) mRNA display library was generated using published procedures (Takahashi, et al. (2009) Methods Mol Biol 535: 293-314) and incubated with immobilized fibrils. Non-binding sequences were washed away and the remaining fibril binding peptides were amplified via RT-PCR. This process was repeated seven times.
as §1

[4] = Radioactive binding assay, beads without target (no target control); settings: radiolabeled peptide
Method: as §1

Huntingtin protein = assay: In vitro Huntingtin aggregation assay imaged by electron microscopy; type: biochemical; settings: synthetic peptide, 6 days
Method: Synthetic HD1 and HD8 were also tested for their ability to inhibit fibril formation in an in vitro Huntingtin aggregation assay. In this assay, Huntingtin protein aggregated over a period of 6 days, forming fibrils that could be imaged using electron microscopy (FIG. 8; Controls).

α-Synuclein fibrils = α-Synuclein fibrils (Homo sapiens, UniProt P37840); assay: Radioactive binding assay, α-Synuclein fibrils; settings: radiolabeled peptide
Method: as §1, §2

Huntingtin Exon 1 Q39 = target: T1, Huntingtin Exon 1 Q39 (Homo sapiens, UniProt P42858, DUP21-38); assay: Co-localization of Alexa 488-labeled peptide with Httex1 Q39-RFP in fixed N2A cells; type: cell-based, mouse; settings: fixed N2A cells transfected with Httex1 Q39-RFP
T1 construct: expressing Huntingtin Exon 1 Q39 (mutant Huntingtin with 39 CAG repeats) fused to red fluorescent protein (tagRFP); expressed in transfected cells; host or cells: N2A (mouse neuroblastoma cell line)
Method: In these experiments, N2A cells (mouse neuroblastoma cell line) were transfected with Httex1 Q39 fused with RFP (middle column). Cells were fixed and stained for HD 1 or HD 8 with Alexa 488 (left column). Co-localization of HD1/HD8 with Httex1 aggregates is shown in the merged image (co-localization observed in cells is indicated by white arrows). The “CTRL” rows show the non-transfected cells, which were treated with 5 times more peptide to confirm the localization was not due to aggregations of peptides or off-target binding occurring in the cell.
HD1 and HD8 were also tested to see if the synthetic peptide recognized Huntingtin fibrils from cells. In this assay, HD1 and HD8 are were labeled with the fluorescent dye, Alexa 488 and were incubated with fixed N2A cells (a mouse neuroblastoma cell line) that were expressing Huntingtin Exon 1 Q39 (mutant Huntingtin with 39 CAG repeats) fused to red fluorescent protein (tagRFP). In control experiments, with no Huntingtin exon 1 (Q39)-RFP fusion (Httex1 Q39) transfected, a diffuse signal is observed with HD1 and HD8 peptides (FIG. 11; Controls).

[5] = target: unbundled fibrils of Huntingtin exon 1 (about 5% biotinylated), immobilized on beads (UniProt P42858); assay: radioactive binding assay, fibrils immobilised on beads
Httex1 aggregates [6] = assay: Labeling of Httex1 aggregates in brain sections of R6/1 mice; set-up: species or system mouse; settings: R6/1 mice (34 weeks) versus age-matched control
Source text: Brain sections from age-matched littermate control and R6/1 mouse are shown in this figure.
HD8-HD1-fluorescein was also used on brain sections from R6/1 mice (34 weeks).

Httex1 aggregates [7] = assay: Labeling of Httex1 aggregates in retinal sections of Huntington mouse models; settings: 34-week-old R6/1 mice, 0.1 micromolar
Source text: FIG. 28 presents fluorescence microscopy pictures showing that HD8-Alexa488 labels aggregated Httex1 in retina sections from two different mouse model of Huntington disease. Left panels show nuclear stain that labels all cells. Right panels show signal from HD8-Alexa488. Top panels show a retinal section from a R6/1 mouse, and bottom panels show a retinal section from a zQ175KI mouse.
Left panels show nuclear stain that labels all cells (A1 and B1), and right panels show signal from HD8-SP10-HD1-fluorescein (A2 and B2). Top panels are higher magnification that show the ganglion cell layer of the retina, and the bottom panels are lower magnification micrographs that show all retinal layers. Labeling of all retinal layers is seen when the HD peptides are dimerized. The phase contrast panel to the left of the bottom panels show the corresponding retinal layers: ONL: outer nuclear layer that contain rod and cone photoreceptor cells, INL: inner nuclear layer that contains cell bodies from horizontal cells, bipolar cells, amacrine cells and Müller cells, GCL: ganglion cell layer.
To see whether HD peptides bind Httex1 aggregates formed in vivo, we used tissues from two different Huntington mouse models, R6/1 (34 weeks old) and zQ175KI (48 weeks). FIG. 28 show retinal sections from these mice incubated with 2 micromolar of HD8 conjugated with Alexa488 at its carboxyl terminus.
HD8-HD1-fluorescein (0.1 micromolar) was also used on retinal sections from 34-week-old R6/1 mice (FIG. 29). […] In addition, weaker signal from intranuclear aggregates was also observed. Further, the signal can now be detected in all layers of the retina where the nuclei reside.

Httex1Q72 aggregates = target: T2, Httex1Q72 aggregates (Homo sapiens, UniProt P42858, INS38QQQQQQQQQQQQQQQQQQQQQQQQQQQQQQQQQQQQQQQQQQQQQQQQQQQ); assay: Labeling of Httex1Q72 aggregates in fixed transfected HEK293 cells; type: cell-based; settings: fixed cells 24 h after transfection, 0.1 micromolar peptide overnight
T2 construct: Httex1Q72 (without RFP) was transfected into HEK293 cells; expressed in transfected cells
Source text: Left panels show fluorescent images (top left panel: nuclear stain to visualize all cells; middle left panel: fluorescein signal arising from the HD8-SP10-HD1-fluorescein peptide; bottom left panel: antibody against fluorescein to further amplify fluorescein signal). Right panels show phase contrast image of the same field. Arrows point to cytoplasmic aggregates that could be visualized with fluorescent signals or under phase contrast. Asterisks mark intranuclear aggregates that were labeled with HD8-SP10-HD1-fluorescein but not anti-fluorescein antibody.
Next, we tested the ability of HD peptides to bind Httex1 aggregates formed in cultured cells. To do this, Httex1Q72 (without RFP) was transfected into HEK293 cells. […] The antibody labeled the rim of the cytoplasmic aggregates and the signal also surrounded some cell nuclei. Little antibody staining was observed on intranuclear aggregates.

[8] = listed as HD8-SP10-HD1-fluorescein

T2 sequence (P42858 with tags, fused parts or gaps limits assumed, stated change not applied): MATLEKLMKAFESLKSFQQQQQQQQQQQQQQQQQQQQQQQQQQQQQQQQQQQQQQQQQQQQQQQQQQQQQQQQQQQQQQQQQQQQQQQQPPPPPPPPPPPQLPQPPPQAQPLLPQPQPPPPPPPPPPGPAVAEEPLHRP
T1 sequence (P42858 with tags, fused parts or gaps DUP21-38): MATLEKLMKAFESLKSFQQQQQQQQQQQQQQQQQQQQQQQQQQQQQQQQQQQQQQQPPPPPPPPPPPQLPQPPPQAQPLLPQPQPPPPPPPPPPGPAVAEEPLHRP

MDWWPMWPSL [HD1]
EPR central line amplitude upon addition of Htt fibrils (peptide-fibril complex formation) (Htt-fibrils [1]): decrease in central line amplitude
binding to monomeric Huntingtin (monomeric Huntingtin): little to no binding
binding of radiolabeled HD1 to Htt-fibrils on addition of synthetic peptide (Htt-fibrils [2]): reduced
binding of radiolabeled HD8 to Htt-fibrils on addition of synthetic peptide (Htt-fibrils [2]): similarly reduced
binding to Htt-fibrils [3]: demonstrated binding to Htt-fibrils; also recorded: bind to Htt-fibrils; also recorded: show binding to Htt-fibrils
binding to Htt-fibrils in the presence of serum ([3]; serum diluted 1:2, 1:5 or 1:10 with buffer (TBST)): serum partially inhibits the binding
binding to beads without target [4]: little to no binding to beads without target; also recorded: little to no binding
inhibition of fibril formation (Huntingtin protein): significant inhibition of fibril formation
binding to α-Synuclein fibrils (α-Synuclein fibrils): little to no binding
colocalization of Alexa 488 signal and RFP signal (Huntingtin Exon 1 Q39): significant colocalization

QBP1 (peptide)
fold less binding as compared with HD1 and HD8 [5]: 10 fold

HD8-HD1-fluorescein: HD8-HD1 labeled with fluorescein at its carboxyl terminus (MWQMMNGMSQGSGTSGSSGSMDWWPMWPSL-fluorescein)
labeling of brain sections (Httex1 aggregates [6]): abundant signal from R6/1 brain
labeling of brain sections (Httex1 aggregates [6]; [8]): labels Httex1 aggregates in brain section
labeling of retinal sections (Httex1 aggregates [7]): Robust signal from the peptide can be seen in the ganglion cell layer
labeling of retinal sections (Httex1 aggregates [7]; [8]): enhanced reactivity of Httex1 aggregates in all retinal layers
labeling of Httex1Q72 aggregates (Httex1Q72 aggregates): strong labeling of the round cytoplasmic Httex1Q72 aggregates (arrows) and intranuclear aggregates
labeling of Httex1Q72 aggregates (Httex1Q72 aggregates; [8]): bound Httex1Q72 aggregates

MWQMMNGMSQ [HD8]
EPR central line amplitude upon addition of Htt fibrils (peptide-fibril complex formation) (Htt-fibrils [1]): decrease in central line amplitude
binding to monomeric Huntingtin (monomeric Huntingtin): little to no binding
binding of radiolabeled HD1 to Htt-fibrils on addition of synthetic peptide (Htt-fibrils [2]): reduced
binding of radiolabeled HD8 to Htt-fibrils on addition of synthetic peptide (Htt-fibrils [2]): similarly reduced
binding to Htt-fibrils [3]: good binding to Htt-fibrils; also recorded: bind to Htt-fibrils; also recorded: show binding to Htt-fibrils
binding to beads without target [4]: little to no binding to beads without target; also recorded: little to no binding; also recorded: low binding to beads without target
inhibition of fibril formation (Huntingtin protein): significant inhibition of fibril formation
binding to α-Synuclein fibrils (α-Synuclein fibrils): little to no binding
colocalization of Alexa 488 signal and RFP signal (Huntingtin Exon 1 Q39): significant colocalization
